This is an account of results in patent publication US10059699B2, “Tetrahydroquinoline derivatives as bromodomain inhibitors” (GlaxoSmithKline Intellectual Property (No.2) Limited, priority 2014, dated 2018).

Like-named read-outs stand apart in the source and are kept apart here.

In assay [1] the test system is NUT midline carcinoma cells (11060). Kind of assay: Cancer cell line proliferation assay, 11060. Format: cell-based. Particulars: 11060 cells, 72 hours, CellTiter Glo, n = 3. The protocol:
(§1) The impact of the compound of Examples 7 and 14 on cancer cell proliferation was determined using patient derived NUT midline carcinoma cells (11060), multiple myeloma cells (OPM-2, DSMZ) and biphenotypic B myelomonocytic leukaemia cells (MV-4-11, ATCC) in a 72 hour proliferation assay. 11060 and OPM-2 cells were maintained in RPMI 1640 medium (Invitrogen) supplemented with 10% HI-FBS (Heat-Inactivated Fetal Bovine Serum, Hyclone) and 2 mM L-glutamine (Invitrogen) at 37° C. and an atmosphere of 5% CO2. MV-4-11 cells were maintained in IMDM media supplemented with 10% HI-FCS, 2 mM L-glutamine, 1× Non-essential amino acids (Invitrogen) and 1× sodium pyruvate (1 mM) (Invitrogen). Cells were diluted to 1.11×10^5 cells/mL and 90 μL/well plated into black sided, clear bottomed 96 well tissue culture plates (Corning), using growth media supplemented with penicillin/streptomycin (Invitrogen). Cells were incubated overnight at 37° C. and in one plate, ATP levels were measured using the CellTiter Glo assay (Promega) according to the manufacturer's instructions, to give a baseline reading (t=0). 3-fold serial dilutions of compounds ranging from 6 mM to 0.3 μM were prepared in 100% DMSO. The DMSO dilution series was diluted 20-fold in growth media before 10 μl of the resulting dilutions were added to the appropriate wells of the remaining cell plates. The final compound concentrations in the wells ranged from 30 μM to 1.5 nM in 0.5% DMSO. Cells were incubated with compounds for 72 hours before assaying for ATP content using CellTiter Glo (t=72). CellTiter Glo data from each t=72 time point was normalised to the relevant t=0 time point data, and expressed as % t=0.
(In general: In ATP-based viability assays light output follows the ATP content of the culture.)

The subject of assay [2] is biphenotypic B myelomonocytic leukaemia cells (MV-4-11). The assay can be described thus: Cancer cell line proliferation assay, MV-4-11. Format: cell-based. Particulars: Homo sapiens, MV4-11, MV-4-11 cells, 72 hours, CellTiter Glo, n = 3. The method, then: as §1
Assay [3] has as its system multiple myeloma cells (OPM-2). Kind of assay: Cancer cell line proliferation assay, OPM-2. In kind it is cell-based. The conditions noted are these: Homo sapiens, OPM-2 cells, 72 hours, CellTiter Glo, n = 2. The protocol:
as §1

Assay [4] deals with Bromodomains BRD2, BRD3, BRD4 and BRDT. Kind of assay: Fluoroligand affinity for mutated vs non-mutated bromodomain. Particulars: single residue mutations in the acetyl lysine binding pocket. On the set-up: species or system Human. The method, then: The binding of the compounds of formulae (I)-(XVI) to Bromodomains BRD2, BRD3, BRD4 and BRDT was assessed using mutated proteins to detect differential binding to either Binding Domain 1 (BD1) or Binding Domain 2 (BD2) on the bromodomain. These single residue mutations in the acetyl lysine binding pocket greatly lower the affinity of the fluoroligand (Reference Compound X) for the mutated domain (>1000 fold selective for the non-mutated domain). Therefore in the final assay conditions, binding of the fluoroligand to the mutated domain cannot be detected and subsequently the assay is suitable to determine the binding of compounds to the single non-mutated bromodomain. […]

[5] abbreviates: full curve fit, read-out: Cellular Proliferation: pIC50 (converted).
Setting [6] is: read-out: Cellular Proliferation: gpIC50 (converted).

As to `CC(=O)N1c2ccc(C(N)=O)cc2[C@H](Nc2ncc(Cl)cn2)[C@@H](C)[C@@H]1C` [Example 7, (2S,3R,4R)-1-acetyl-4-((5-chloropyrimidin-2-yl)amino)-2,3-dimethyl-1,2,3,4-tetrahydroquinoline-6-carboxamide], the IC50 in assay [1] (setting [5]) is 631 nM; in assay [1] (setting [6]), 398 nM; in assay [2] (setting [5]), 200 nM; in assay [2] (setting [6]), 158 nM; in assay [3] (setting [5]) it was 100 nM; in assay [3] (setting [6]), 50.1 nM.

On to `COc1ccc2c(c1)C(c1ccc(Cl)cc1)=N[C@@H](CC(=O)NCCCCCNC(=O)CCCCCC1(C)/C(=C/C=C/C=C/C3=[N+](CCCCS(=O)(=O)O)c4ccc(S(=O)(=O)O)cc4C3(C)C)N(CCCCS(=O)(=O)[O-])c3ccc(S(=O)(=O)O)cc31)c1nnc(C)n1-2` (stereo partly shown) [Reference Compound X], for which the “selectivity for the non-mutated domain over the mutated domain” value in assay [4] is recorded as over 1000 fold.
